Test [1] deals with Gluten-reactive T-cell lines (TCLs) from celiac disease patients' biopsies. Put plainly: T-cell activation assay (IFN-γ ELISA). The settings on record: peptides 10 μM, 48 h; positive if IFNγ ≥2-fold vs control and significantly higher (one-sided t-test). It is filed as cell-based, human. The method, then: 200 mg of protein were first incubated in 5% formic acid with 4 mg pepsin for 4 hours in 37° C. Then the sample was evaporated using speedVac. On the following day, the protein was incubated with 4 mg chymotrypsin in 20 mM ammonium-bicarbonate for 4 hours in 37° C., followed by speedVac evaporation. The concentration of the digest was then measured, and the digest was deamidated using transglutaminase, 2 U per 7 mg digest for 6 hours in 37° C. The samples were then cleaned using a C18 column, dried and resuspended in media at a concentration of 2 mg/ml. […]
TCLs from celiac disease patients' biopsies were assayed for responses to deamidated PCT-HMW proteins and HMW peptides by the detection of IFN-7 by enzyme-linked immunosorbent assay (ELISA), as previously described (Gianfrani, Carmen, et al. “Gliadin-specific type 1 regulatory T cells from the intestinal mucosa of treated celiac patients inhibit pathogenic T cells.” The journal of immunology 177.6 (2006): 4178-4186.). […] The reaction was stopped, and the plate was read on the ELISA plate reader at […]. The results were analyzed using Graphpad Prism and IFNγ levels were determined. […]
For orientation: ELISA stands for enzyme-linked immunosorbent assay.

Test [2] addresses HLA-DQ2.5 (Homo sapiens, UniProt P01909+P01920, A45G/A70V/D89A/E106A/E77G/E98D/H199R/L107V/N214S/P84L/P87L/T103K/T109R/T172A/T60S/V78E/V99I/Y58L/Y62S/Y69I/Y79F). Briefly: MHC II/peptide competition binding assay, HLA-DQ2.5. The method, then: (§1) One skilled in the art would appreciate that the 15-mers used included shorter de-epitoped high molecular weight glutenin peptide sequences (mutated repeating antigenic units), as described throughout. For example, Table 2 provides a listing of 15-mers and the shorter mutated repeating antigenic units present therein. […] MHC II molecules were purified by affinity chromatography, and peptides were radiolabeled using the chloramine T method. After an incubation period, the bound and unbound radiolabeled species were separated, and their relative amounts were determined by either size-exclusion gel-filtration chromatography or monoclonal antibody capture of MHC. The percent of bound radioactivity was then determined.

In test [3] the target is HLA-DQ8 (Homo sapiens, UniProt P01909+P01920, A209T/A45G/C70Q/D89A/DUP78-78/E183D/E77G/F237L/G63E/H199R/I129T/K197E/L178F/L74F/L98V/Q57E/Q76R/S185I/S97I/T217I/T49S/V73L/Y58L). Briefly: MHC II/peptide competition binding assay, HLA-DQ8. Here is the method:
as §1

Residues, ends and D or L forms follow the SMILES beside them.

What is called IC50 is the concentration needed to halve the response being measured. For the compound `C[C@@H](O)[C@H](NC(=O)[C@@H]1CCCN1C(=O)[C@H](Cc1ccc(O)cc1)NC(=O)[C@H](Cc1ccc(O)cc1)NC(=O)CNC(=O)[C@H](CCCCN)NC(=O)[C@H](CCC(N)=O)NC(=O)CNC(=O)[C@@H](N)CCC(N)=O)C(=O)N[C@@H](CO)C(=O)N1CCC[C@H]1C(=O)N[C@@H](Cc1c[nH]cn1)C(=O)N[C@@H](CCC(N)=O)C(=O)N[C@@H](CO)C(=O)NCC(=O)O` [SEQ ID NO: 143] (H-QGQKGYYPTSPHQSG-OH; N-terminus assumed), the “T-cell activation (IFN-γ levels by ELISA)” value in test [1] is reported as “abolishment of T-cell activation”. The IC50 was 34.4 µM in test [2] and over 40 µM in test [3].

The record behind these values is patent publication US20230416314A1, “MODIFIED HIGH MOLECULAR WEIGHT GLUTENIN SUBUNIT AND USES THEREOF” (Ukko Inc., priority 2020, published 2023).
